Experimental data published in ChEMBL document CHEMBL5634090, “Design of phenothiazine-based cationic amphiphilic derivatives incorporating arginine residues: Potential membrane-active broad-spectrum antimicrobials combating pathogenic bacteria in vitro and in vivo” (Eur J Med Chem, 2023).
Converted amounts (≈) assume the structure as drawn.

Experiments:
Pseudomonas aeruginosa = assay: Antibacterial activity against Pseudomonas aeruginosa ATCC 9027 by microbroth dilution assay; assay type: functional
Staphylococcus aureus [1] = assay: Antibacterial activity against methicillin resistant Staphylococcus aureus N315 by microbroth dilution assay; assay type: functional
Escherichia coli = assay: Antibacterial activity against Escherichia coli ATCC 25922 by microbroth dilution assay; assay type: functional
[2] = Hemolytic activity in rabbit erythrocytes; assay type: toxicity, cell-based, Oryctolagus cuniculus, Erythrocyte
Staphylococcus aureus [3] = assay: Antibacterial activity against methicillin resistant Staphylococcus aureus NCTC 10442 by microbroth dilution assay; assay type: functional
Klebsiella pneumoniae [4] = assay: Antibacterial activity against Klebsiella pneumoniae ATCC 10031 by microbroth dilution assay; assay type: functional
Klebsiella pneumoniae [5] = assay: Antibacterial activity against Klebsiella pneumoniae ATCC 14581 by microbroth dilution assay; assay type: functional
Staphylococcus aureus [6] = assay: Antibacterial activity against Staphylococcus aureus ATCC 29213 by microbroth dilution assay; assay type: functional
Klebsiella pneumoniae [7] = assay: Induction of resistance development in Klebsiella pneumoniae ATCC 10031 assessed as fold increase in MIC treated over 20 serial passages by microdilution assay; assay type: functional
Klebsiella pneumoniae [8] = assay: Antibacterial activity against Klebsiella pneumoniae ATCC 10031 assessed as log reduction in bacterial load at 8 times MIC measured after 2 hrs by time kill assay; assay type: functional
Staphylococcus aureus [9] = assay: Inhibition of biofilm formation in Staphylococcus aureus ATCC 29213 at MIC by crystal violet staining assay relative to control; assay type: functional
Klebsiella pneumoniae [10] = assay: Antibiofilm activity against 24 hrs preformed biofilm in Klebsiella pneumoniae ATCC 10031 assessed as residual biomass at 4 times MIC relative to control; assay type: functional
Staphylococcus aureus [11] = assay: Antibiofilm activity against 24 hrs preformed biofilm in Staphylococcus aureus ATCC 29213 assessed as residual biomass at 4 times MIC relative to control; assay type: functional
Klebsiella pneumoniae [12] = assay: Inhibition of biofilm formation in Klebsiella pneumoniae ATCC 10031 at MIC by crystal violet staining assay relative to control; assay type: functional
Staphylococcus aureus [13] = assay: Induction of resistance development in Staphylococcus aureus ATCC 29213 assessed as fold increase in MIC treated over 20 serial passages by microdilution assay; assay type: functional

SMILES	MIC (Staphylococcus aureus [1]) [µg/mL]	MIC (Escherichia coli) [µg/mL]	HC50 [2] [µg/mL]	MIC (Staphylococcus aureus [3]) [µg/mL]	MIC (Staphylococcus aureus [6]) [µg/mL]	other results
CCCCCCCN1c2ccccc2Sc2ccc(OCC(=O)N[C@@H](CCCNC(=N)N)C(=O)N[C@@H](CCCNC(=N)N)C(=O)OC)cc21	1.56 (≈ 2.24 µM)	6.25 (≈ 8.96 µM)	> 200	1.56 (≈ 2.24 µM)	1.56 (≈ 2.24 µM)	MIC (Pseudomonas aeruginosa): > 50 µg/mL; MIC (Klebsiella pneumoniae [4]): 25 µg/mL (≈ 35.8 µM); MIC (Klebsiella pneumoniae [5]): 25 µg/mL (≈ 35.8 µM)
COc1ccc2c(c1)Nc1ccccc1S2	> 50	> 50	> 200	> 50	> 50	–
CCCCCCCCCOc1ccc2c(c1)N(CCCCNC(=N)N)c1ccccc1S2	1.56 (≈ 3.43 µM)	> 50	> 200	1.56 (≈ 3.43 µM)	3.12 (≈ 6.87 µM)	–
CCCCCCCCCOc1ccc2c(c1)Nc1ccccc1S2	> 50	> 50	> 200	> 50	> 50	–
O=C(O)c1cn(C2CC2)c2cc(N3CCNCC3)c(F)cc2c1=O [CIPROFLOXACIN]	–	–	–	–	–	fold change (FC) (Klebsiella pneumoniae [7]): 128; MIC (Pseudomonas aeruginosa): 0.195 µg/mL (≈ 0.589 µM); log(activity) (Klebsiella pneumoniae [8]): 2.27; MIC (Klebsiella pneumoniae [4]): 0.195 µg/mL (≈ 0.589 µM); MIC (Klebsiella pneumoniae [5]): 0.195 µg/mL (≈ 0.589 µM)
CCCCCN1c2ccccc2Sc2ccc(OCC(=O)N[C@@H](CCCNC(=N)N)C(=O)N[C@@H](CCCNC(=N)N)C(=O)OC)cc21	3.12 (≈ 4.67 µM)	> 50	> 200	6.25 (≈ 9.33 µM)	6.25 (≈ 9.33 µM)	–
CCCCCOc1ccc2c(c1)N(CCCCCCCCN(CC)CC)c1ccccc1S2	3.12 (≈ 6.67 µM)	> 50	> 200	3.12 (≈ 6.67 µM)	3.12 (≈ 6.67 µM)	–
CC[C@H](C)[C@H](NC(=O)CN)C(=O)NCC(=O)N[C@@H](C)C(=O)N[C@H](C(=O)N[C@@H](CC(C)C)C(=O)N[C@@H](CCCCN)C(=O)N[C@H](C(=O)N[C@@H](CC(C)C)C(=O)N[C@H](C(=O)N[C@H](C(=O)NCC(=O)N[C@@H](CC(C)C)C(=O)N1CCC[C@H]1C(=O)N[C@@H](C)C(=O)N[C@@H](CC(C)C)C(=O)N[C@H](C(=O)N[C@@H](CO)C(=O)N[C@@H](Cc1c[nH]c2ccccc12)C(=O)N[C@H](C(=O)N[C@@H](CCCCN)C(=O)N[C@@H](CCCNC(=N)N)C(=O)N[C@@H](CCCCN)C(=O)N[C@@H](CCCNC(=N)N)C(=O)N[C@@H](CCC(N)=O)C(=O)N[C@@H](CCC(N)=O)C(N)=O)[C@@H](C)CC)[C@@H](C)CC)[C@@H](C)O)[C@@H](C)O)C(C)C)C(C)C [MELITTIN]	–	–	–	–	–	inhibition (INH) (Staphylococcus aureus [9]): >90%; Activity (Klebsiella pneumoniae [10]): <10%; MIC (Klebsiella pneumoniae [4]): 6.25 µg/mL (≈ 2.2 µM); MIC (Klebsiella pneumoniae [5]): 6.25 µg/mL (≈ 2.2 µM); Activity (Staphylococcus aureus [11]): >10%; inhibition (INH) (Klebsiella pneumoniae [12]): >90%
CCCCCN1c2ccccc2Sc2ccc(OCC(=O)N[C@@H](CCCNC(=N)N)C(=O)OC)cc21	3.12 (≈ 6.08 µM)	> 50	> 200	6.25 (≈ 12.2 µM)	12.5 (≈ 24.3 µM)	–
CCCCCOc1ccc2c(c1)N(CCCCN)c1ccccc1S2	3.12 (≈ 8.76 µM)	25 (≈ 70.1 µM)	> 200	3.12 (≈ 8.76 µM)	3.12 (≈ 8.76 µM)	–
CCCCCOc1ccc2c(c1)Nc1ccccc1S2	> 50	> 50	> 200	> 50	> 50	–
CCCCCOc1ccc2c(c1)N(CCCCCCNC(=N)N)c1ccccc1S2	1.56 (≈ 3.66 µM)	> 50	> 200	1.56 (≈ 3.66 µM)	1.56 (≈ 3.66 µM)	–
CC(C)=CCOc1ccc2c(c1)N(CCCCN)c1ccccc1S2	6.25 (≈ 17.6 µM)	> 50	> 200	6.25 (≈ 17.6 µM)	6.25 (≈ 17.6 µM)	–
CCn1cc(C(=O)O)c(=O)c2cc(F)c(N3CCNCC3)cc21 [NORFLOXACIN]	–	–	–	–	1.56 (≈ 4.89 µM)	fold change (FC) (Staphylococcus aureus [13]): 1024
Oc1ccc2c(c1)Nc1ccccc1S2	> 50	> 50	> 200	> 50	> 50	–
CCCCCCCN1c2ccccc2Sc2ccc(OCC(=O)OCC)cc21	> 50	> 50	> 200	> 50	> 50	–
CCCCCOc1ccc2c(c1)N(CCCCCCCCNC(=N)N)c1ccccc1S2	1.56 (≈ 3.43 µM)	> 50	> 200	1.56 (≈ 3.43 µM)	1.56 (≈ 3.43 µM)	–
CCCCCCCCCOc1ccc2c(c1)N(CCCCN)c1ccccc1S2	3.12 (≈ 7.57 µM)	> 50	> 200	3.12 (≈ 7.57 µM)	3.12 (≈ 7.57 µM)	–
CC(C)=CCOc1ccc2c(c1)N(CCCCNC(=N)N)c1ccccc1S2	0.78 (≈ 1.97 µM)	> 50	> 200	0.78 (≈ 1.97 µM)	1.56 (≈ 3.93 µM)	–
